According to publication PMC4019466, “RNA Mimicry by the Fap7 Adenylate Kinase in Ribosome Biogenesis” (PLoS Biology, 2014):

Experiments:
aFap7–aRps14 complex [1] = target: T1, aFap7–aRps14 complex (Pyrococcus abyssi, UniProt Q9UZK4); experiment: X-ray crystal structure, […] Å; details: Mg2+; ATP binding pocket of aFap7; pH 8.5, 18 °C
T1 construct: gene PYRAB11420; co-expressed from polycistronic pET21, N-terminal 6xHis on Fap7, E. coli Rosetta 2DE3; 1:1 complex, calculated mass 36,272; with Small ribosomal subunit protein uS11 (30S ribosomal protein S11)

yFap7 [2] = target: T2, yFap7 (Saccharomyces cerevisiae, UniProt Q12055); experiment: adenylate kinase assay coupled to pyruvate kinase / lactate dehydrogenase, NADH at […] nm; type: biochemical; details: 5 mM MgCl2, pH 7.5, 30 °C; co-substrate ATP
T2 construct: gene FAP7; full-length, His-tagged, pRSF-DUET, expressed in E. coli Rosetta 2DE3; calculated monomer mass 23,916 (SAXS sample)
T2 sequence (Q12055 1-197): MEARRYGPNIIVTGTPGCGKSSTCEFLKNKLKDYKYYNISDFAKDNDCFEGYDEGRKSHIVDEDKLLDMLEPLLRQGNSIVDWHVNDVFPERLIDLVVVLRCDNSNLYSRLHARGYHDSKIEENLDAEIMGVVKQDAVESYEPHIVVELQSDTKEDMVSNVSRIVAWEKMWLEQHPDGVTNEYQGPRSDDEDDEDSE

yFap7 [3] = target: T2, yFap7; experiment: native gel electrophoresis with radiolabelled ATP; type: binding; details: 30 µM yFap7, 0.1 mM [γ-32P]ATP, AMP-PNP 0.1 or 1 mM
yFap7–yRps14 complex = target: T3, yFap7–yRps14 complex (Saccharomyces cerevisiae, UniProt Q12055); experiment: adenylate kinase assay coupled to pyruvate kinase / lactate dehydrogenase, NADH at […] nm; type: biochemical; details: 0.3 mM AMP, 5 mM MgCl2, pH 7.5, 30 °C; preformed complex
T3 construct: gene FAP7; co-expressed from polycistronic pET21, N-terminal 6xHis on Fap7, E. coli Rosetta 2DE3; 1:1 complex, calculated mass 38,447; with Small ribosomal subunit protein uS11 (40S ribosomal protein S14)

aFap7–aRps14 complex [4] = target: T1, aFap7–aRps14 complex; experiment: X-ray crystal structure, […] Å; details: Mg2+; ATP binding pocket of aFap7; pH 8.5, 18 °C; two of four aFap7 copies hold ATP, two ADP
purified protein = substrate: Nc1ncnc2c1ncn2[C@@H]1O[C@H](COP(=O)(O)OP(=O)(O)OP(=O)(O)O)[C@@H](O)[C@H]1O; experiment: purified protein; type: biochemical, Saccharomyces cerevisiae; details: 0.3 mM AMP, 5 mM MgCl2, 60 mM KCl, 100 mM Tris-HCl pH 7.5, 30 °C, ATP 0.01–1 mM
MBP-yRps14 [5] = target: T4, MBP-yRps14 (Saccharomyces cerevisiae, UniProt P06367 1-137); experiment: filter binding; 300 mM KCl, 5 mM Mg2+, HEPES pH 8.0; Filter binding: 30 mM Tris-HCl pH 8.0, 150 mM KCl, 6 mM MgCl2, 60 ug/ml E. coli tRNA, 20 C, 15 min, 10 fmol RNA (Fig S4D: 20 mM HEPES pH 8.0, 300 mM KCl, 5 mM MgCl2, 20 C); pull-down: IP buffer (300 mM KCl, 50 mM Hepes pH 7.5, 0.5 mM EDTA, 1 mM DTT, 10% glycerol as given for bead preparation), 5 mM MgCl2 where stated; details: protein: recombinant; tags: MBP (pETM41; His-tag purification); (radioactively labeled); hairpin
yFap7 [6] = target: T5, yFap7 (Saccharomyces cerevisiae, UniProt Q12055 1-197); experiment: filter binding; up to 3.6 uM protein; 6 mM Mg2+, 150 mM KCl; Filter binding: 30 mM Tris-HCl pH 8.0, 150 mM KCl, 6 mM MgCl2, 60 ug/ml E. coli tRNA, 20 C, 15 min, 10 fmol RNA (Fig S4D: 20 mM HEPES pH 8.0, 300 mM KCl, 5 mM MgCl2, 20 C); pull-down: IP buffer (300 mM KCl, 50 mM Hepes pH 7.5, 0.5 mM EDTA, 1 mM DTT, 10% glycerol as given for bead preparation), 5 mM MgCl2 where stated; details: protein: recombinant; tags: His; (radioactively labeled); hairpin
T5 sequence: T2 sequence (Q12055 1-197)

MBP-yRps14 [7] = target: T4, MBP-yRps14; experiment: filter binding; 6 mM Mg2+, 150 mM KCl, E. coli tRNA 60 ug/ml; Filter binding: 30 mM Tris-HCl pH 8.0, 150 mM KCl, 6 mM MgCl2, 60 ug/ml E. coli tRNA, 20 C, 15 min, 10 fmol RNA (Fig S4D: 20 mM HEPES pH 8.0, 300 mM KCl, 5 mM MgCl2, 20 C); pull-down: IP buffer (300 mM KCl, 50 mM Hepes pH 7.5, 0.5 mM EDTA, 1 mM DTT, 10% glycerol as given for bead preparation), 5 mM MgCl2 where stated; details: protein: recombinant; tags: MBP (pETM41; His-tag purification); (radioactively labeled); hairpin

Nc1ncnc2c1ncn2[C@@H]1O[C@H](COP(=O)(O)OP(=O)(O)O)[C@@H](O)[C@H]1O [ADP]
X-ray crystal structure, 2.12 Å (aFap7–aRps14 complex [1]): 4cwn and 4cw7 for the ADP- and ATP-bound structures

Nc1ncnc2c1ncn2[C@@H]1O[C@H](COP(=O)(O)O)[C@@H](O)[C@H]1O [AMP]
adenylate kinase assay coupled to pyruvate kinase / lactate dehydrogenase, NADH (yFap7 [2]): the AK activity of yFap7 with respect to AMP

Nc1ncnc2c1ncn2[C@@H]1O[C@H](COP(=O)(O)OP(=O)(O)NP(=O)(O)O)[C@@H](O)[C@H]1O [AMPPNP]
native gel electrophoresis with radiolabelled ATP (yFap7 [3]): Fap7 binds AMPPNP and ATP−Mg with the same (AMPPNP) or a slightly lower

Nc1ncnc2c1ncn2[C@@H]1O[C@H](COP(=O)(O)OP(=O)(O)OP(=O)(O)O)[C@@H](O)[C@H]1O [ATP]
adenylate kinase assay coupled to pyruvate kinase / lactate dehydrogenase, NADH (yFap7–yRps14 complex): yFap7–yRps14 complex showed almost complete inhibition of the Fap7 AK activity | X-ray crystal structure, 2.45 Å (aFap7–aRps14 complex [4]): In the ATP-bound crystal form, two copies of aFap7 are bound by ATP

B1: yFap7 (Saccharomyces cerevisiae S288C) (protein)
chain: T2 sequence (Q12055 1-197)
notes: full-length, His-tagged, pRSF-DUET, expressed in E. coli Rosetta 2DE3; calculated monomer mass 23,916 (SAXS sample)
Km (purified protein): 52 µM | kcat (purified protein): 0.00612 s⁻¹

GGGAGUAUUCAAUUGUCAGAGGUGAAAUUCUUGGAUUUAUUGAAGAGU (structured_RNA) [Helix 23 of 18S rRNA (H23)]
Kd (MBP-yRps14 [5]): 34.9 ± 0.95 µM | binding result (yFap7 [6]): no binding | Kd (MBP-yRps14 [7]): 1500 ± 150 nM
